Reference: patent US20260166051A1, “COMPOUNDS AND METHODS FOR TREATING CANCER” (The Regents of the University of California, priority 2022, published 2026)
“Also recorded” adds a separate entry of the source. Like-named read-outs stand apart in the source and are kept apart here.

Tests used:
normal tissue cell lines = assay: Toxicity in normal tissue cell lines (NIH3T3 fibroblasts, EOC20 microglia, human astrocytes, murine neural stem/progenitor cells); assay type: cell-based; conditions: alone or in combination with radiation
Source text: FIGS. 5A-D. Toxicity of the analogs MXC017, 079 and 021 in fibroblasts (NIH3T3, FIG. 5A), microglia cells (EOC20, FIG. 5B), human astrocytes (FIG. 5C) or murine neural stem/progenitor cells (FIG. 5D).
(§1) Compound 2 was identified in an unbiased phenotypic screen and MCX analogs were synthesized without knowledge of the actual molecular target. […] Western blotting confirmed inhibition of the downstream targets with downregulation of p-Erk, p-Akt and upregulation of cytosolic beta-catenin (FIG. 4).

HK-374 glioma stem cells = assay: Sphere-forming assay: self-renewal of HK-374 glioma stem cells; assay type: cell-based, human; conditions: n=3
Source text: FIG. 42. Inhibition of self-renewal of HK-374 glioma stem cells in the absence of radiation.
FIG. 43. Inhibition of self-renewal of HK-374 glioma stem cells in combination with 4 Gy.
Primary human glioma cell lines were established at UCLA as described (Hemmati et al., PNAS 2003; Characteristics of specific gliomasphere lines can be found in Laks et al., Neuro-Oncology 2016). Primary glioblastoma cells were propagated as gliomaspheres in serum-free conditions in T25 flasks in DMEM/F12, supplemented with B27, EGF, bFGF and heparin as described previously (Vlashi et al., Journal of the NCI, 2009, 101, 350-9). All cells were grown in a humidified atmosphere at 37° C. with 5% CO2. The unique identity of all patient-derived specimen was confirmed by DNA fingerprinting (Laragen, Culver City, CA). All lines were routinely tested for mycoplasma infection (MycoAlert, Lonza). […]
Cells were seeded under serum-free conditions into untreated plates in DMEM/F12 media, supplemented with 10 ml/500 mL of B27 (Invitrogen), 0.145 U/ml recombinant insulin (Eli Lilly, Indiana), 0.68 U/mL heparin (Fresenius Kabi, Illinois), 20 ng/ml fibroblast growth factor 2 (bFGF, Sigma) and 20 ng/ml epidermal growth factor (EGF, Sigma). After 10 days in culture, spheres formed from singles cells were counted. […]

[1] = PK study, plasma and brain concentration by mass spectrometry; assay type: in vivo; conditions: mice; for Kp: mouse, brain/plasma, 50 mg/kg
Method: FIGS. 38A and 38B. PK studies for MXC-017 and MXC-079 Mice were treated with a single dose of the novel compounds at 50 mg/kg. Plasma and brain samples were taken at indicated time points and compound concentration measured by mass spectrometry.
(§2) After two weeks of treatment the tumors were harvested, processed into single cells and the number of glioma cells with sphere-forming capacity (glioma stem cells) was determined in a functional assay (extreme limiting dilution assay). […] (FIG. 40A).

[2] = test system: non-stem glioblastoma cells; assay: Reprogramming assay (phenotype conversion, ZsGreen-cODC reporter, flow cytometry); assay type: cell-based, human; conditions: spontaneous and radiation-induced
Method: Primary glioblastoma cells were engineered to express a fusion protein of ZsGreen and the C-terminal degron of ornithine decarboxylase. This construct reports for lack of 26S proteasome activity and cells with low proteasome activity are enriched for cells with tumor-initiating properties. For reprogramming experiments, cells with low proteasome activity (ZsGreen-positive) were removed by FACS. ZsGreen-negative cells were treated and 5 days later the number of radiation-induced ZsGreen-positive cells was assessed by flow cytometry.

cytosolic beta-catenin = assay: Western blotting of patient-derived glioblastoma cells; assay type: cell-based, human; conditions: Western blot
Source text: as §1

p-AKT = assay: as above; assay type: cell-based, human; conditions: Western blot
Source text: as §1

p-ERK = assay: as above; assay type: cell-based, human; conditions: Western blot
Source text: as §1

[3] = test system: patient-derived glioma cells; assay: Secondary screening: self-renewal in patient-derived glioma cells; assay type: cell-based, human; conditions: patient-derived glioma cells (GBM)
Method: Cells were seeded under serum-free conditions into untreated plates in DMEM/F12 media, supplemented with 10 ml/500 mL of B27 (Invitrogen), 0.145 U/ml recombinant insulin (Eli Lilly, Indiana), 0.68 U/mL heparin (Fresenius Kabi, Illinois), 20 ng/ml fibroblast growth factor 2 (bFGF, Sigma) and 20 ng/ml epidermal growth factor (EGF, Sigma). After 10 days in culture, spheres formed from singles cells were counted. Certain compounds tested in sphere-forming assay according to the present disclosure are shown below. Results are shown in FIGS. 6, 7, 8, 9-19, 26, 33-37.

[4] = In vivo BBB penetration of compound 2; conditions: mice
HK374 cells = assay: In vivo treatment of HK374 tumors, then in vitro extreme limiting dilution assay; set-up: species or system NSG mice
Method: FIGS. 39A-D. FIG. 39A NSG mice were injected with HK374 cells. After 2 weeks post grafting, mice received a single dose of 10 Gy and 5 daily injections/week of MXC-017 or saline for 2 weeks. Tumors were harvested and an in vitro extreme limiting dilution assay was performed. […] FIG. 39D Elimination of GSCs was reflected by the complete loss of cells with self-renewing capacity.
as §2

[5] = Tolerability and body weight in mice; assay type: in vivo, NSG mice
[6] = Histology of major organs (kidneys, lung, spleen, heart, liver); assay type: in vivo, mice; conditions: 50 mg/kg, 2 weeks, 5 days on, 2 days off
PDOX models of GBM = assay: Survival in PDOX models of GBM; assay type: in vivo, mice
[7] = test system: Nestin-positive glioma stem cells; assay: Immunofluorescent staining of brains of glioma bearing mice; assay type: in vivo; conditions: combined treatment with radiation and MXC-017
Source text: (§3) FIGS. 41A-B. Immunofluorescent staining of brains of glioma bearing mice using antibodies against Olig2 and Nestin. Combined treatment with radiation and MXC-017 eliminated Nestin-positive glioma stem cells in the tumors while not effecting the sensitive normal tissue cell population of Olig2-positive oligodendrocytes in the brain. Nuclei were counterstained.

[8] = test system: Olig2-positive oligodendrocytes; assay: as above; assay type: in vivo; conditions: combined treatment with radiation and MXC-017
Source text: as §3

[9] = single dose 50 mg/kg, brain versus plasma, read-out: enrichment in brain tissue
[10] = read-out: brain to plasma ratio
[11] = alone or in combination with radiation

Q: Which “toxicity in normal tissue cell lines” value (normal tissue cell lines) does the source give for `CCN(CC)S(=O)(=O)c1ccc(CNCc2ccccc2N)cc1` [MXC021, 4-(((2-Aminobenzyl)amino)methyl)-N,N-diethylbenzenesulfonamide] here?
A: Its value is “no relevant toxicity”.

Q: For `O=C(NCc1ccc(S(=O)(=O)N2CCCCC2)cc1)n1ccc2cc(Cl)ccc21` [MHD003, 5-chloro-N-(4-(piperidin-1-ylsulfonyl)benzyl)-1H-indole-1-carboxamide], which “self renewal of glioma stem cells, % of irradiated controls” value (HK-374 glioma stem cells; in combination with 4 Gy, controls DMSO, p<0.0001) is on record?
A: Its value is 6%.

Q: What about the “self-renewal of HK-374 glioma stem cells in the absence of radiation (reduced to)” value (HK-374 glioma stem cells; unirradiated cells, one-way ANOVA) of the same molecule?
A: The value was 14%.

Q: With `O=C(NCc1ccc(S(=O)(=O)N2CCCCCC2)cc1)n1ccc2ccccc21` [MXC079, N-(4-(Azepan-1-ylsulfonyl)benzyl)-1H-indole-1-carboxamide] as the molecule, how does the peak brain concentrations [1] read?
A: Its peak brain concentrations is “in the micromolar range”.

Q: What about the Kp [1, 9] of the same molecule?
A: The Kp was 2.63.

Q: What about the Kp [1, 10] of the same molecule?
A: The Kp was 2.6.

Q: What about the “phenotype conversion of non-stem glioma cells into glioblastoma-initiating cells” value ([2]; listed as MCX079) of the same molecule?
A: Its value is “prevent spontaneous and radiation-induced phenotype conversion; also recorded: prevented radiation-induced phenotype conversion”.

Q: And the “cytosolic beta-catenin level (TNIK target)” value (cytosolic beta-catenin)?
A: The value was “stabilization”.

Q: What about the “p-AKT level (FLT3 target)” value (p-AKT) of the same molecule?
A: Its value is “down-regulation”.

Q: What about the “p-ERK level (FLT3 target)” value (p-ERK) of the same molecule?
A: Its value is “down-regulation”.

Q: What about the “toxicity in normal tissue cell lines” value (normal tissue cell lines) of the same molecule?
A: Its value is “no relevant toxicity”.

Q: With `C=C1c2ccccc2NC(=O)N1Cc1ccc(S(=O)(=O)N2CCCCC2)cc1` [Compound 2, 4-Methylene-3-(4-(piperidin-1-ylsulfonyl)benzyl)-3,4-dihydroquinazolin-2(1H)-one] as the molecule, how does the inhibition of self-renewal [3] read?
A: Its inhibition of self-renewal is “inhibits self-renewal”.

Q: What about the inhibition of self-renewal ([3]; listed as compound 2) of the same molecule?
A: The inhibition of self-renewal was “confirming activity”.

Q: What about the “BBB penetration in vivo” value [4] of the same molecule?
A: The value was “penetrates the BBB”.

Q: What about the “BBB penetration in vivo” value ([4]; listed as compound 2) of the same molecule?
A: The value was “confirmed the in silico prediction of BBB penetration”.

Q: For `O=C(NCc1ccc(S(=O)(=O)N2CCCCC2)cc1)n1ccc2ccccc21` [MXC017, N-(4-(Piperidin-1-ylsulfonyl)benzyl)-1H-indole-1-carboxamide], which peak brain concentrations [1] is on record?
A: The peak brain concentrations was “in the micromolar range”.

Q: And the Kp [1, 9]?
A: The Kp was 4.55.

Q: And the Kp [1, 10]?
A: The Kp was 4.55.

Q: And the “phenotype conversion of non-stem glioma cells into glioblastoma-initiating cells” value ([2]; listed as MCX017)?
A: Its value is “prevent spontaneous and radiation-induced phenotype conversion; also recorded: prevented radiation-induced phenotype conversion”.

Q: And the “cytosolic beta-catenin level (TNIK target)” value (cytosolic beta-catenin)?
A: The value was “stabilization”.

Q: What about the “p-AKT level (FLT3 target)” value (p-AKT) of the same molecule?
A: The value was “down-regulation”.

Q: What about the “p-ERK level (FLT3 target)” value (p-ERK) of the same molecule?
A: The value was “down-regulation”.

Q: And the “toxicity in normal tissue cell lines” value (normal tissue cell lines)?
A: The value was “no relevant toxicity”.

Q: And the “number of GSCs” value (HK374 cells; MXC-017 alone, 2 weeks treatment, extreme limiting dilution assay)?
A: Its value is “significantly reduced”.

Q: What about the “frequency of glioma stem cells” value (HK374 cells; [11]) of the same molecule?
A: The value was “significantly reduced”.

Q: And the “number of sphere forming cells” value (HK374 cells; [11])?
A: Its value is “reduced the number of sphere forming cells”.

Q: What about the “number of GSCs” value (HK374 cells; combination of radiation (single dose 10 Gy) and MXC-017) of the same molecule?
A: The value was “eliminated all GSCs”.

Q: What about the tolerability ([5]; 5 daily injections/week for 2 weeks) of the same molecule?
A: Its tolerability is “well tolerated; also recorded: well tolerated in mice with no acute clinical toxicity”.

Q: What about the “body weight during observation time of 2 weeks” value [5, 11] of the same molecule?
A: The value was “allowed animals to gain weight”.

Q: And the “histological signs of toxicity in major organs” value [6]?
A: Its value is “did not reveal any toxicity”.

Q: What about the median survival (PDOX models of GBM; MXC-017 alone, five daily doses/week) of the same molecule?
A: The median survival was “small but significant increase”.

Q: And the median survival (PDOX models of GBM; single dose 10 Gy plus MXC-017 50 mg/kg, 5 days on, 2 days off, prolonged from 29 days, p<0.0001 log-rank)?
A: The median survival was 60 days.

Q: What about the “Nestin-positive glioma stem cells in the tumors” value [7] of the same molecule?
A: The value was “eliminated”.

Q: What about the “effect on oligodendrocytes (normal tissue) in the brain” value [8] of the same molecule?
A: Its value is “not effecting; also recorded: had no effect”.
